In assay [1] the target is Induced myeloid leukemia cell differentiation protein Mcl-1 (Homo sapiens, UniProt Q07820). The format is functional.
Assay [2] deals with Eukaryotic translation initiation factor 4E (Mus musculus, UniProt P63073). Nature of the assay: eIF4E–eIF4G protein interaction inhibitors, dose response, biochemical, TR-FRET (AID 855).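 Also: potency for disrupting eIF4E binding to eIF4GI seen as loss of FRET.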 It counts as functional. For orientation: TR-FRET usually uses a lanthanide donor and a delayed reading to cut background.
The target of assay [3] is T1, Small ubiquitin-related modifier 1 (Homo sapiens, UniProt P63165). Nature of the assay: inhibitors of SUMO1 peptide binding, dose response, biochemical, fluorescence polarization, uHTS hits (AID 624382). The format is functional. The note with it: read-out: IC50_Mean.
Assay [4] has as its target T2, SUMO-activating enzyme (Homo sapiens, UniProt Q9UBT2). Briefly: SUMOylation inhibitor hit validation, confirmation, SUMOylation inhibitor project, biochemical, AlphaScreen (AID 2018). The format is functional. On the technique in general: Alpha assays give light when donor and acceptor beads are brought close together.
Assay [5] deals with T3, Small ubiquitin-related modifier 2 (Homo sapiens, UniProt P61956). Briefly: inhibitors of SUMO2 protein-protein interaction, dose response, selectivity assay for SUMO1 interaction inhibitor project, biochemical, FRET, human SUMO2, uHTS hits (AID 624384). It counts as functional. The note with it: read-out: IC50_Mean.
In assay [6] the target is T3, Small ubiquitin-related modifier 2. Nature of the assay: SUMO2–SIM peptide binding inhibitors, dose response, selectivity assay for SUMO1 interaction inhibitor project, biochemical, fluorescence polarization, uHTS hits (AID 624385). The format is functional. Particulars: read-out: IC50_Mean. For orientation: Polarisation of emitted light reports the rotation of a fluorescent probe.

The target of assay [7] is T1, Small ubiquitin-related modifier 1. Briefly: inhibitors of SUMO1 partner interactions, dose response, biochemical, FRET (AID 624383). It counts as functional. Particulars: read-out: IC50_Mean.
The target in assay [8] is Envelope glycoprotein gp160 (Human immunodeficiency virus 1, UniProt Q6QLK5). Briefly: inhibitors of HIV fusion peptide binding, primary screen, biochemical, uHTS, fluorescence dequenching (AID 1986).
The target of assay [9] is T2, SUMO-activating enzyme. Briefly: inhibitors of in vitro SUMOylation cascade, primary screen, biochemical, HTRF, uHTS (AID 2006). The format is protein-complex assay.
Assay [10] concerns the target Melanin-concentrating hormone receptor 1 (Homo sapiens, UniProt Q99705). Briefly: Late-stage fluorescence-based counterscreen for antagonists of the G-protein coupled receptor 7 (GPR7): cell-based dose response assay to identify antagonists of the melanin-concentrating hormone receptor 1 (MCHR1). [Related pubchem assays (depositor defined):AID1861, AID1880, AID1952, AID2148, AID2251, AID2257, AID485339]. The format is functional.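 Also: stimulated with 30 nM MCH peptide agonist.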

Assay [11] has as its target T4, Neuropeptides B/W receptor type 1 (Homo sapiens, UniProt P48145).
T4 sequence (P48145 whole entry): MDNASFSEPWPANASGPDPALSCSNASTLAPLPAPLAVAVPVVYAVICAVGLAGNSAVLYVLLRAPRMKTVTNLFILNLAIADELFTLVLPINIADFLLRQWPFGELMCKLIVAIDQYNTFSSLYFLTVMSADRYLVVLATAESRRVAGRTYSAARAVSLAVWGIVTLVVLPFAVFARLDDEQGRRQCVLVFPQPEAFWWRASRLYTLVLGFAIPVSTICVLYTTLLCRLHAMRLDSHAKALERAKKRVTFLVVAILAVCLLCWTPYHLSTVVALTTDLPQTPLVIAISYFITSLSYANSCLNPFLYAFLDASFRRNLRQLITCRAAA
Briefly: GPR7 antagonist potency, late-stage follow-up, cell-based, fluorescence, dose response (AID 463251). It counts as functional.

Assay [12] deals with Alkaline phosphatase, placental type (Homo sapiens, UniProt P05187). Nature of the assay: PLAP enzyme inhibitors, confirmation, biochemical, luminescence (AID 1512). The format is functional.
The target in assay [13] is Glyceraldehyde-3-phosphate dehydrogenase (Homo sapiens, UniProt P04406).
In assay [14] the target is Voltage-dependent T-type calcium channel subunit alpha-1H (Homo sapiens, UniProt O95180). Briefly: Cav3.2 T-type channel inhibitors, cell-based, synthetic library set 1, calcium flux (AID 493022). The format is functional.
Assay [15] addresses Keap1/Nrf2 (Homo sapiens, UniProt Q14145). Briefly: Keap1-Nrf2 protein-protein interaction inhibitors, dose response, biochemical, fluorescence polarization, cherry-picked samples (AID 588683).
Assay [16] addresses Beta-lactamase (Salmonella choleraesuis (strain SC-B67), UniProt Q5J463).
Assay [17] deals with G-protein coupled receptor 35 (Homo sapiens, UniProt Q9HC97). Briefly: GPR35 antagonists blocking zaprinast-driven arrestin recruitment, primary screen, imaging, U2OS, beta-arrestin-GFP, zaprinast agonist (AID 2058).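 Also: antagonist potency meaning inhibition of agonist-induced arrestin redistribution.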 The format is functional.
Assay [18] has as its target Beta-lactamase (Pseudomonas aeruginosa, UniProt Q79MP6).
Assay [19] concerns J774.A1. Nature of the assay: Confirmation of image-based Screening Assay for Inhibitors of Phagocytosis. [Related pubchem assays (depositor defined):AID1029, AID1643]. The note with it: Mus musculus. It counts as functional, cell-based.

Active and inactive are the calls of the source. Where only a bound is given, the exact number is not on record here.

T3 sequence (P61956 whole entry): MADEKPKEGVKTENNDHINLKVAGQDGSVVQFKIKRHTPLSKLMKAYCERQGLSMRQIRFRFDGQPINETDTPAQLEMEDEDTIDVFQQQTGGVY
T1 sequence (P63165 whole entry): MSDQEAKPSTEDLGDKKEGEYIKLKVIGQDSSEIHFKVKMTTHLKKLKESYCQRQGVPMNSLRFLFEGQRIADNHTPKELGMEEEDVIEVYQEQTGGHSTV
T2 sequence (Q9UBE0 whole entry): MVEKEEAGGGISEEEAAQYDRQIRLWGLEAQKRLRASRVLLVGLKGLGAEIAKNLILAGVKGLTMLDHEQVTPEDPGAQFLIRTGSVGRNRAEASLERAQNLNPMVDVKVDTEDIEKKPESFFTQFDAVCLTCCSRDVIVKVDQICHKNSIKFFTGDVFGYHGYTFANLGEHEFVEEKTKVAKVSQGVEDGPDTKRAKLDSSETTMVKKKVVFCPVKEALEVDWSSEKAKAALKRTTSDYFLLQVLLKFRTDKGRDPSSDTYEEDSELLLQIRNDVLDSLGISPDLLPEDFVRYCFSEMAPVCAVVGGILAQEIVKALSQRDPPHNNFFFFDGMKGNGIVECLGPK
T2 sequence (Q9UBT2 whole entry): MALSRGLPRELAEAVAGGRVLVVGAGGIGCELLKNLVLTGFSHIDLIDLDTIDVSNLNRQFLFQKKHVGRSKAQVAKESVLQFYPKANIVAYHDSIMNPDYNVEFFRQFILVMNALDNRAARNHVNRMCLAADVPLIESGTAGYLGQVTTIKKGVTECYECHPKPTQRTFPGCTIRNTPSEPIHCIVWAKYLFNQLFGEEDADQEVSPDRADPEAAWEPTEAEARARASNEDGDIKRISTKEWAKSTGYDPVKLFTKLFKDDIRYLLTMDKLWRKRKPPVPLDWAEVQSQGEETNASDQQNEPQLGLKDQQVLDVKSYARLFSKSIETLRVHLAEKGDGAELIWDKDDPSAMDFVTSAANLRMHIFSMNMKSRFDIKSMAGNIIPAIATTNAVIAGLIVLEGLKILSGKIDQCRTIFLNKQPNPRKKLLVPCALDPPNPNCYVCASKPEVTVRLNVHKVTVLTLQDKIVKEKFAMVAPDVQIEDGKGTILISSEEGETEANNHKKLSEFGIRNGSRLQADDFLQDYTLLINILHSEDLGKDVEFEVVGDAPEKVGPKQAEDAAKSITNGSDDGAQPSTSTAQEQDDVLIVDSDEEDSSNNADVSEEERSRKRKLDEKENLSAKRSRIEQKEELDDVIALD
Melanin-concentrating hormone receptor 1, sequence (Q99705 whole entry): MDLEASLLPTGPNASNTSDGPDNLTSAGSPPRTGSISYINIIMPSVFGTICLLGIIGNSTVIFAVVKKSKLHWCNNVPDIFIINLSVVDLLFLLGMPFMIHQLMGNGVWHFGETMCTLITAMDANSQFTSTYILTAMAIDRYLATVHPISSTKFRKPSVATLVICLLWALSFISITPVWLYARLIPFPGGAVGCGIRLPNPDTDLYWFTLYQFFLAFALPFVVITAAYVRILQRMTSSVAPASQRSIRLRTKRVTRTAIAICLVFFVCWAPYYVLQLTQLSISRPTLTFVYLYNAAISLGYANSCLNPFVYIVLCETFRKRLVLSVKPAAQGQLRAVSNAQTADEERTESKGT
Voltage-dependent T-type calcium channel subunit alpha-1H, sequence (O95180 whole entry): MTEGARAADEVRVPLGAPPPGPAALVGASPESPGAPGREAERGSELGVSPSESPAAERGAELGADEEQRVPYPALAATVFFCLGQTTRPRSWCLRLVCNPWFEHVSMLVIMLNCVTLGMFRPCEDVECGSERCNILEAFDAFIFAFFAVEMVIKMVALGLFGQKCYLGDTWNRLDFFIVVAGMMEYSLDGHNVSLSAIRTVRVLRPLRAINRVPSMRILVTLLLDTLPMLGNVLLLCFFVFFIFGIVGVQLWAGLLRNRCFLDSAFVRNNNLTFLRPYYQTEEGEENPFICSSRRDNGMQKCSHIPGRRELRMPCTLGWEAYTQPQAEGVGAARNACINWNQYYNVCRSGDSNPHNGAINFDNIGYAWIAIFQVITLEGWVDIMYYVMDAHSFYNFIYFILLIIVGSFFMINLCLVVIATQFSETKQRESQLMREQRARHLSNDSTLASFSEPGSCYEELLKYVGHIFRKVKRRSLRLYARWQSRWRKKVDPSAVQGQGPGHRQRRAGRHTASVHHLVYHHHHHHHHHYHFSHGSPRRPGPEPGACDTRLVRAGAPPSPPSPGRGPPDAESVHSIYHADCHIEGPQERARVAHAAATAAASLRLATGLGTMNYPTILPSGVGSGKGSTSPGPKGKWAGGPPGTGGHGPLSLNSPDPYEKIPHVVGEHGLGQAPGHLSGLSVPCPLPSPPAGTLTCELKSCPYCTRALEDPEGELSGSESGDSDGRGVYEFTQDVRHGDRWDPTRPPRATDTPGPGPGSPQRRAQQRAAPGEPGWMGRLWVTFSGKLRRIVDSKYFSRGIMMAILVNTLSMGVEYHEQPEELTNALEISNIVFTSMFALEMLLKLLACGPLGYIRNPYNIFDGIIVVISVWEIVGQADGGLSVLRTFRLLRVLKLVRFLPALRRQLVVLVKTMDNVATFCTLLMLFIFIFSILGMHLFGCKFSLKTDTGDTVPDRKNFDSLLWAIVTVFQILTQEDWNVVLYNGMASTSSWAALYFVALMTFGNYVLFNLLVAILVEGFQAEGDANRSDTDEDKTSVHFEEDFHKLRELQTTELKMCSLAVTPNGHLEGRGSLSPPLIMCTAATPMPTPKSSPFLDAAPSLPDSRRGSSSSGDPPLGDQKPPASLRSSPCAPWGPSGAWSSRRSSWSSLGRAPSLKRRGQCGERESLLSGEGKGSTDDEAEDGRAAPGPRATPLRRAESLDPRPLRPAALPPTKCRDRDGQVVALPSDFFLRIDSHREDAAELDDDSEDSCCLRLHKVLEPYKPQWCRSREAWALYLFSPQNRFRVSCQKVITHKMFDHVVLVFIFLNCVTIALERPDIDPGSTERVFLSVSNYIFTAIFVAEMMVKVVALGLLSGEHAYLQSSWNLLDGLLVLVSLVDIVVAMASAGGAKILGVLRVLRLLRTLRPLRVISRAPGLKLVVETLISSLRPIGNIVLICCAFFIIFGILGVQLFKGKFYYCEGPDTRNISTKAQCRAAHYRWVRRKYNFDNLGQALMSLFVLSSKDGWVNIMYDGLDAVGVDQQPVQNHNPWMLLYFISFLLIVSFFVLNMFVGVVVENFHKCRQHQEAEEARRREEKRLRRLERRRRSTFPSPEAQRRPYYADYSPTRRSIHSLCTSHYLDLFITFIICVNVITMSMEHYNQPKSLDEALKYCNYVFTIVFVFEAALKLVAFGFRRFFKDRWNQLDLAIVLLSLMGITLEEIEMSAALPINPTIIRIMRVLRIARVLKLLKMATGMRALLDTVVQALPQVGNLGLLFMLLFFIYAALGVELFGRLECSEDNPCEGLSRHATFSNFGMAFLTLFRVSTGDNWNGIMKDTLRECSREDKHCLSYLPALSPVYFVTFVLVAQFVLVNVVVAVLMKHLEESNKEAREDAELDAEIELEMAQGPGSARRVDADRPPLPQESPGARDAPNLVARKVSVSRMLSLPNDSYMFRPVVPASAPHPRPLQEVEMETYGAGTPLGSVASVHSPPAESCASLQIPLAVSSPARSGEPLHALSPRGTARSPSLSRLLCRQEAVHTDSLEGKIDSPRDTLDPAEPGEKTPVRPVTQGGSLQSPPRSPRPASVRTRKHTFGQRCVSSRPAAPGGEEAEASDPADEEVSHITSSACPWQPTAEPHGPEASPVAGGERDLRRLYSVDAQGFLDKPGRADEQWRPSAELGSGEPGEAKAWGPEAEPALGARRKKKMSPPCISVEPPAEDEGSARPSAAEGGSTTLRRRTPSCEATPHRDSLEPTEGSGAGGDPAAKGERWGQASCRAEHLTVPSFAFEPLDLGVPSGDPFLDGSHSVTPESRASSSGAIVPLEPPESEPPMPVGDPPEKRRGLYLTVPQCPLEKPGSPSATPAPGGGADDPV
Eukaryotic translation initiation factor 4E, sequence (P63073 whole entry): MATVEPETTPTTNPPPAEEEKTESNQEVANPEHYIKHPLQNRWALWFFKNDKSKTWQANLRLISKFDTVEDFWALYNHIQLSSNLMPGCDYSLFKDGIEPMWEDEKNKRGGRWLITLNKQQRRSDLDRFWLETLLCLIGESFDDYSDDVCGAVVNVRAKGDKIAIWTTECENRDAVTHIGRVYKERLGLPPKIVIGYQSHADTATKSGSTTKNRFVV
Beta-lactamase (Pseudomonas aeruginosa, UniProt Q79MP6), sequence (Q79MP6 whole entry): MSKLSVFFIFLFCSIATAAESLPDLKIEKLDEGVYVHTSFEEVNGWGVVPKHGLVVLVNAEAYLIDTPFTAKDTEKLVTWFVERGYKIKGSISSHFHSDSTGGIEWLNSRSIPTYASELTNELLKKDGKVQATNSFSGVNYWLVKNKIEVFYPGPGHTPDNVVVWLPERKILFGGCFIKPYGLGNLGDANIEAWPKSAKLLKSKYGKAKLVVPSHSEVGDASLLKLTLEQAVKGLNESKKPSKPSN
Induced myeloid leukemia cell differentiation protein Mcl-1, sequence (Q07820 whole entry): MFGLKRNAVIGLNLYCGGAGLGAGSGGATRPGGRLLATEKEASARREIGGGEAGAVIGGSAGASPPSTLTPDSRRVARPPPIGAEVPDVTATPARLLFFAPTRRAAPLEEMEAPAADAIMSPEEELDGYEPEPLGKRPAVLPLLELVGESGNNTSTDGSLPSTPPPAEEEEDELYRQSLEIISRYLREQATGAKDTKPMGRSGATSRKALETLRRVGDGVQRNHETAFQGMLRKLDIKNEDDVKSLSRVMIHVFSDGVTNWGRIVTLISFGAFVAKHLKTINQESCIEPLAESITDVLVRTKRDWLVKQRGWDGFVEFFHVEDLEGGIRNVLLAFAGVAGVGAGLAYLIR
Beta-lactamase (Salmonella choleraesuis (strain SC-B67), UniProt Q5J463), sequence (Q5J463 whole entry): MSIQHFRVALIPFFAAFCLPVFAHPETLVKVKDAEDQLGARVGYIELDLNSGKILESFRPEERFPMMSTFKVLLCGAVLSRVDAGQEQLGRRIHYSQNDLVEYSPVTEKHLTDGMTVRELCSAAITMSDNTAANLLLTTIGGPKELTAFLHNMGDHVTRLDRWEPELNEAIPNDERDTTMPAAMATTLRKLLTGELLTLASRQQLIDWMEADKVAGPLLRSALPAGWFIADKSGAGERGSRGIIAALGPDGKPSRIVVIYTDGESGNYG

As for `O=C(O)c1cccc2c1NC(c1cccc([N+](=O)[O-])c1)C1CC(Sc3ccccc3[N+](=O)[O-])C(Cl)C21` (centres undefined), the IC50 was 3.05 µM (active) in assay [1]; 50 µM (inactive) in assay [2]; 6.45 µM (active) in assay [3]; 2.43 µM (active) in assay [4]; 6.16 µM (active) in [5]; 6.5 µM (active) in [6]. Besides, the figures for the IC50 in [7], in assay [8] and in assay [9] were 36.6 µM (inactive), 12.5 µM (active) and 13.3 µM (active), respectively.
For `COC(=O)c1ccc(-n2ncc(Cl)c(Oc3ccc(OC)cc3)c2=O)cc1`, the IC50 in assay [10] is > 20 µM (inactive); in [11] it was 4.1 µM (active).
In the case of `CN(C)C(=O)c1cc(-c2ccc(Cl)cc2Cl)n[nH]1`, the IC50 was > 100 µM (inactive) in assay [12] and > 100 µM (not active) in [13].
Usually EC50 stands for the concentration at which the effect is half-maximal. For `O=C(COc1ccccc1F)Nc1nnc(-c2ccc3c(c2)OCCO3)o1`, the 50% effective concentration (EC50) in assay [14] is 10 µM (active).
The term AC50 denotes the midpoint of the concentration-response curve, whichever way the signal moves. On to `O=c1cc(C(F)(F)F)c2cc3c4c(c2o1)CCCN4CCC3`, for which the AC50 in [15] was 2.8 µM (active). The IC50 in [16] is 5.57 µM (active); in assay [17], 1.37 µM (active); in [18], 78.2 µM (inactive).
Take `COc1ccccc1/C=C/C(=O)OCC(=O)Nc1cc(C(F)(F)F)ccc1N1CCOCC1`: the IC50 in assay [19] is > 25 µM (inactive).

The values above are taken from ChEMBL document CHEMBL1201862, “PubChem BioAssay data set” (2004).
